From PubChem BioAssay AID179 (DTP/NCI, 2004)
Several values for one entry are separate records, joined by “and”; a condition that tells them apart may be missing. Identical values can stand only once. Activity calls are given as the source filed them.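 How the source made its calls: active means compounds giving half or more protection of infected cells from virus-caused growth loss, again on retest; inactive means the rest.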

Test system: CEM cells HIV-1 protection, formazan growth assay
Assay: NCI AIDS Antiviral Assay
Settings: for IC50: measured here: growth of uninfected CEM cells
How it was run: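 Protection of CEM cells against HIV-1 measured as cell growth via soluble formazan read-out, with five concentrations tested on both infected and uninfected cells; failure to protect may reflect toxicity.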

Row | SMILES | outcome | EC50 | IC50
1 | CSc1sc2ccccc2[s+]1 | inactive | – | –
2 | C#Cc1ccccc1N1C(=O)C=CC1=O | – | > 251 µM | > 251 µM
3 | Brc1ccc(C2=CSC3=NCCN23)cc1 | – | > 200 µM | 23.4 µM and 107 µM
4 | CC1(C)CN=C(Nc2ccc(Cl)cc2)S1 | inactive | – | –
5 | C[C@]12CCC3C(CC[C@H]4C/C(=C/C#N)CC[C@]34C)C1CC/C2=C\C#N (stereo partly specified) | – | > 100 µM | 25.7 µM
6 | CC(C)N1CN(C(C(=O)N[C@@H]2C(=O)N3C2SC(C)(C)C3C(=O)O)c2ccccc2)CSC1=S (stereo partly specified) | – | > 257 µM | 155 µM
7 | O=[N+]([O-])c1ccc(NS(=O)(=O)C(F)(F)F)cc1 | – | > 200 µM | > 200 µM
8 | Sc1ccc(Nc2c3ccccc3nc3ccccc23)cc1 | – | > 200 µM | 14.5 µM
9 | NC(CCCC(N)P(=O)(O)O)C(=O)O (stereo unspecified) | inactive | – | –
10 | CC1=CC(=O)/C(=C/N2C(=O)/C(=C\c3cccc(O)c3)SC2=S)C(=O)O1 | – | > 200 µM | 55 µM
11 | O=C(Nc1ccccc1)N(C1=NCC(CI)S1)c1ccc(F)cc1F (stereo unspecified) | – | > 200 µM | 25.1 µM
12 | Cc1ccc(N2C(=O)CS/C2=C(\C#N)c2nc3ccccc3[nH]2)cc1 | – | > 200 µM | > 200 µM
13 | CC(=O)/C=C(\c1ccccc1)c1c(O)c2ccccc2oc1=O | – | > 200 µM | 141 µM
14 | O=C(O)c1cc(N=Nc2cc(S(=O)(=O)O)c3cccnc3c2O)ccc1/C=C/c1ccc(N=Nc2cc(S(=O)(=O)O)c3cccnc3c2O)cc1C(=O)O | – | 4.27 µM and 21.4 µM | 61.7 µM and > 200 µM
15 | CCCCCCCCCCCCCCCCCCNC(=S)/N=C\C1=C(O)c2ccccc2C1=O | – | > 200 µM | 36.3 µM
16 | COc1cc(NS(=O)(=O)c2ccc(NC(=O)c3ccccc3SC(=O)CCCC[n+]3ccccc3)cc2)nc(OC)n1 | – | 26.9 µM | 60.3 µM
17 | C/C=C1/CC(C(=O)OC)N(C(=O)OCc2ccccc2)C1=S (stereo unspecified) | – | > 200 µM | > 200 µM
18 | Cc1ccc(-n2cnc3c(N/N=C4\SCC(=O)N4c4ccccc4)ncnc32)cc1 | inactive | – | –
19 | CC1CC(C)(C)NC2(CCCC2)N1 (stereo unspecified) | – | > 200 µM | > 200 µM
20 | CCOP(=O)(OCC)/C(=C/n1c(=S)[nH]c2ccccc21)C(=O)OC | – | > 200 µM | > 200 µM
21 | COc1cc(/C=C/c2ccc(O)c(OC)c2)cc(OC)c1 | – | > 126 µM | 2.14 µM

Row | SMILES | outcome | EC50 | IC50
22 | Clc1cccc(-c2nnc(-c3nn(-c4ccccc4)c4nc5ccccc5nc34)o2)c1 | – | > 4.68 µM | > 4.68 µM
23 | C1=NN2C(c3ccccc3)=NOC2C2C(c3ccccc3)=NOC12 (stereo unspecified) | – | > 200 µM | > 200 µM
24 | COC(=O)c1cc(Cc2cc(C(=O)OC)c(OC)c(C(F)(F)F)c2)cc(C(F)(F)F)c1OC | – | > 200 µM | 25.7 µM
25 | CO/N=C(/C(=O)Nc1c[n+](CC(=O)[O-])cs1)c1csc(N)n1 | – | > 145 µM | > 145 µM
26 | CC(C)N(C(=O)C12C3C4C1C1C4(C#N)C3C12C#N)C(C)C (stereo unspecified) | – | > 129 µM | > 129 µM
27 | CCCCCCCCCc1nn2c(Cc3ccccc3)nnc2s1 | – | > 200 µM | 36.3 µM
28 | S=c1[nH]c2ccccc2s1.[Zn+2] | – | > 26.3 µM | > 26.3 µM
29 | COCCCNC(=O)C1C(=O)N(CCCOC)C(=O)/C1=N\N (stereo unspecified) | – | > 214 µM | > 214 µM
30 | COC(=O)c1cc(C(=O)OC)c(CC(=O)C(=O)Nc2c(C(C)C)cccc2C(C)C)nc1CC(=O)C(=O)Nc1c(C(C)C)cccc1C(C)C | – | > 200 µM | > 200 µM
31 | N#C/C(=C/c1cccc(Oc2ccccc2)c1)c1ccccc1 | – | > 6.76 µM | > 6.76 µM
32 | NC(=O)c1ccccc1NC(=O)C(=O)Cc1nc2ccccc2[nH]c1=O | – | > 269 µM | > 269 µM
33 | COc1cc2c(cc1OC)C(Cl)C(c1ccc(Br)cc1)=C2Cl (stereo unspecified) | inactive | – | –
34 | CC1(C)C(=O)C(C)(C)C(=O)C(C)(C)C1=O | inactive | – | –
35 | CC(=O)OC1CC2C(C)(C)C(=O)C=C[C@]2(C)C2CCC3(C)C(c4ccoc4)C(=O)[C@H]4O[C@]43[C@]12C (stereo partly specified) | – | > 15.5 µM | 12 µM
36 | O=C(CCn1[nH]c(=O)c(Cl)c(Cl)c1=O)NOCCCc1ccccc1 | – | > 646 µM | > 646 µM
37 | CC1(C)OC[C@@H](O)[C@H](C#N)CO1 | – | > 200 µM | > 200 µM
38 | OCCN1CCN(CC/C=C2\c3ccccc3Sc3ccc(Cl)cc32)CC1 | – | > 200 µM | 10.2 µM
39 | COc1cc2cc(C(=O)N3CC(CCl)c4ccc(N)cc43)[nH]c2c(OC)c1OC (stereo unspecified) | – | > 1.51 µM | 0.295 µM
40 | COc1cc(/C=C/c2cc(O)cc(C3OC(CO)C(O)C(O)C3O)c2)ccc1O (stereo unspecified) | inactive | – | –
41 | O=[N+]([O-])c1cccc(C2SCc3nc4ccccc4n32)c1 (stereo unspecified) | – | > 60.3 µM | 37.2 µM
42 | CCOC(=O)c1cc2nc(NC(=O)c3ccccc3)sc2n1C | – | > 200 µM | > 200 µM

Row | SMILES | outcome | EC50 | IC50
43 | COc1ccccc1NC(=O)C1=C(C)NC(C)=C(C(=O)Nc2ccccc2OC)C1c1ccc(C(C)C)cc1 | inactive | – | –
44 | C/C=C/C(CC(O)(C(F)(F)F)C(F)(F)F)=N/NC(N)=S | – | > 200 µM | > 200 µM
45 | CCOC(=O)/C=C(\CCOC1CCCCO1)[Si](C)(C)c1ccccc1 (stereo unspecified) | – | > 20 µM | > 20 µM
46 | c1ccc(-c2cc(-c3cccs3)c(-c3cccs3)o2)cc1 | – | > 200 µM | 25.7 µM
47 | c1csc(-c2nnc(C34CC5CC(CC(C5)C3)C4)o2)c1 | – | > 200 µM | 50.1 µM
48 | Cc1ccc(-c2cc(O)c3nc4ccccc4n3c2)cc1 | – | > 200 µM | > 200 µM
49 | N#CC(Nc1cccc(C(F)(F)F)c1)c1ccccc1C(F)(F)F (stereo unspecified) | – | > 39.8 µM | > 39.8 µM
50 | CO[C@@H]1C=C[C@@]23c4cc5c(cc4CN(C[C@@H]2O)[C@H]3C1)OCO5 | – | > 603 µM | 1.1 µM
51 | CCOC(=O)C(C)(C(=O)OCC)C1(c2ccccc2)OC(=O)c2ccccc21 (stereo unspecified) | inactive | – | –
52 | COC1/C=C/OC2(C)Oc3c(C)c(O)c4c(O)c(c(/C=N/N5C(C)CN(Cc6ccc(O)cc6)CC5C)c(O)c4c3C2=O)NC(=O)C(C)=C/C=C/C(C)C(O)C(C)C(O)C(C)C(OC(C)=O)C1C (stereo unspecified) | – | > 200 µM | 7.94 µM
53 | O=C(COc1ccccc1Cl)N1N=C(c2ccccc2)CC1(O)c1ccccc1 (stereo unspecified) | – | > 24.5 µM | > 24.5 µM
54 | CC/C(=N/OC(=O)N(C)C)c1ccccc1 | – | > 200 µM | > 200 µM
55 | COc1ccc(CC(COS(=O)(=O)c2ccc(C)cc2)NS(=O)(=O)c2ccc(C)cc2)cc1 (stereo unspecified) | – | > 200 µM | 26.9 µM
56 | COCC(N=CN1CCCc2ccccc2[C@@H]1CCCCl)C(C)(C)C (stereo partly specified) | – | > 200 µM | 22.4 µM
57 | O=C1[C@@H]2CC(O)[C@@H]3C(=O)[C@@H]4CC(O)[C@H]1[C@@H]4[C@H]23 (stereo partly specified) | – | > 1120 µM | > 1120 µM
58 | c1cncc(-c2ncc3cccnc3n2)c1 | – | > 100 µM | > 100 µM
59 | N.N.N.N.N.O=C([O-])C(=O)[O-].[Co+3].[O-][Cl+3]([O-])([O-])O.[O-][Cl+3]([O-])([O-])[O-] | inactive | – | –
60 | COC(=N)C12C(N)=NC(OC)(OC)C1(C#N)C21C(=O)N(c2ccccc2)N=C1C (stereo unspecified) | – | > 200 µM | 97.7 µM
61 | O=C1CCNC/C1=C\c1ccccc1 | – | > 6920 µM | 19.1 µM
62 | N#CI1OC(C(F)(F)F)(C(F)(F)F)c2ccccc21 | – | > 200 µM | 9.55 µM
63 | CC1C(=O)OC2CCC3(C)C(=O)OC4OC5(c6ccoc6)CC1(O)C2(C)C43O5 (stereo unspecified) | – | > 200 µM | > 200 µM
